Experiments:
Assay type in all cases: cell-based
[1] = molecular target: T1, 17β-hydroxysteroid dehydrogenase type 1 (Homo sapiens, UniProt P14061); test: Inhibition of 17β-HSD type 1 in MCF-7 cells stably expressing the isoenzyme (HPLC, tritium labeled estrone); conditions: 2 nM estrone, read-out: % Inhibition of the 17β-HSD enzyme type 1 (HSD1); for inhibition at 1 µM: MCF7, 1 μM compound; for inhibition at 10 µM: MCF7, 10 μM compound
T1 construct: expressed in transfected cells; host or cells: MCF-7
T1 sequence (P14061 1-328): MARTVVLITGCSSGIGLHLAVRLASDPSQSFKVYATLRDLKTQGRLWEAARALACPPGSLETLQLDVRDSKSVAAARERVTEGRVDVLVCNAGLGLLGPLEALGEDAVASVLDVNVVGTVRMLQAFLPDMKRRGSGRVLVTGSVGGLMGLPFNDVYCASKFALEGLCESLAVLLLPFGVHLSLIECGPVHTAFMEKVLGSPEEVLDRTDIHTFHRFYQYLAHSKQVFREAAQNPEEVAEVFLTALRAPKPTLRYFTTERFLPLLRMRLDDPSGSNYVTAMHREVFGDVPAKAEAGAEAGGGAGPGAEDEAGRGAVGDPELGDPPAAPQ
Excerpt: (§1) Biological Testing Materials and Methods 1. Inhibition of the 17β-hydroxysteroid dehydrogenase type 1, type 2 and type 3 enzyme
(§2) The compounds were screened in respect of 17β-HSD enzyme activity in vitro on established M CF-7 cell lines, each stably expressing one of the respective 17β-HSD isoenzymes. The interconversion of substrate by each isoenzyme and the 17β-HSD inhibiting activity of chemical compounds in these cell lines were detected by HPLC system.
(§3) Varying amounts of the test compounds were incubated in the growth medium of the 17β-HSD expressing cells together tritium labeled substrate (2 nM estrone for 17β-HSD type 1; 2 nM estradiol for 17β-HSD type 2; and 2 nM androstenedione for 17β-HSD type 3). The medium samples were removed after exact incubation time and the reaction is stopped by trichloroacetic acid (TCA). The samples were analyzed by HPLC-coupled flow scintillation analysis.
(§4) For each enzyme type, the HSD-inhibiting activity of an individual test compound was calculated by comparing the conversion of a control sample without any test compound (referred to as “Negative Control”) to the (reduced) conversion of the test sample containing the particular compound to be tested (referred to as “Test Sample”).
(§5) Two concentrations of each compound were used. The number of the compound refers to the numbers indicated in the Experimental Section.

[2] = molecular target: T2, 17β-hydroxysteroid dehydrogenase type 2 (Homo sapiens, UniProt P37059); test: Inhibition of 17β-HSD type 2 in MCF-7 cells stably expressing the isoenzyme (HPLC, tritium labeled estradiol); conditions: 2 nM estradiol, read-out: % Inhibition of the 17β-HSD enzyme type 2 (HSD2); for inhibition at 1 µM: MCF7, 1 μM compound; for inhibition at 10 µM: MCF7, 10 μM compound
T2 construct: expressed in transfected cells; host or cells: MCF-7
T2 sequence (P37059 1-387): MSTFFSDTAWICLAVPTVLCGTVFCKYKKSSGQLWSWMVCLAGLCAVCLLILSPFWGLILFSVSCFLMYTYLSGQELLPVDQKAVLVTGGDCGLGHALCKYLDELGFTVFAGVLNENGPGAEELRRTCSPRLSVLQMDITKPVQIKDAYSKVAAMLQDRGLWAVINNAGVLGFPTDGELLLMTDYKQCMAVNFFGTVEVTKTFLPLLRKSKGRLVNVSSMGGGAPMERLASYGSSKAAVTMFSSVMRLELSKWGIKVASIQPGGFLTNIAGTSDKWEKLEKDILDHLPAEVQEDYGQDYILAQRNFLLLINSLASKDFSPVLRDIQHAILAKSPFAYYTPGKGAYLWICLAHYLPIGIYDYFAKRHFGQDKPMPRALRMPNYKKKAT
Excerpt: as §1, §2, §3, §4, §5

[3] = molecular target: T3, 17β-hydroxysteroid dehydrogenase type 3 (Homo sapiens, UniProt P37058); test: Inhibition of 17β-HSD type 3 in MCF-7 cells stably expressing the isoenzyme (HPLC, tritium labeled androstenedione); conditions: 2 nM androstenedione, read-out: % Inhibition of the 17β-HSD enzyme type 3 (HSD3); for inhibition at 1 µM: MCF7, 1 μM compound; for inhibition at 10 µM: MCF7, 10 μM compound
T3 construct: expressed in transfected cells; host or cells: MCF-7
T3 sequence (P37058 1-310): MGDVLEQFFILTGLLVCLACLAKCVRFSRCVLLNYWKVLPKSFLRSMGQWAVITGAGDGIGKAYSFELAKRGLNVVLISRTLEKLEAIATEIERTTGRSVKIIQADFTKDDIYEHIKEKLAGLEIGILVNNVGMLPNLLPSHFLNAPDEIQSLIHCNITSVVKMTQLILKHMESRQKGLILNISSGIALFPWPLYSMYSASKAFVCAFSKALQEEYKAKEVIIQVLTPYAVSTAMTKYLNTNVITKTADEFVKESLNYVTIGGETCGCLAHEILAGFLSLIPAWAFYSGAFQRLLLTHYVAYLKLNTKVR
Excerpt: as §1, §2, §3, §4, §5

| Compound | inhibition at 1 µM [1] [%] | inhibition at 10 µM [1] [%] | inhibition at 1 µM [2] [%] | inhibition at 10 µM [2] [%] | inhibition at 1 µM [3] [%] | inhibition at 10 µM [3] [%] |
| --- | --- | --- | --- | --- | --- | --- |
| CCCSC1=C(C=O)CCc2c1sc1nc3n(c(=O)c21)CCCCC3 [Compound 5c, 1,2,7,8,9,10,11,13-Octahydro-13-oxo-4-(propylthio)[1]benzothieno[2′,3′:4,5]-pyrimido-[1,2-a]azepine-3-carboxaldehyde] | 74 | 100 | 8.9 | 18.6 | 10.5 | 100 |
| CCCCSC1=C(C=O)CCc2c1sc1nc3n(c(=O)c21)CCCCC3 [Compound 5d, 1,2,7,8,9,10,11,13-Octahydro-13-oxo-4-(butylthio)[1]benzothieno[2′,3′:4,5]-pyrimido-[1,2-a]azepine-3-carboxaldehyde] | 54.1 | 100 | 8.2 | 15.1 | 32.6 | 72 |
| CC(C)SC1=C(C=O)CCc2c1sc1nc3n(c(=O)c21)CCCCC3 [Compound 5e, 1,2,7,8,9,10,11,13-Octahydro-13-oxo-4-(isopropylthio)[1]benzothieno[2′,3′:4,5]-pyrimido-[1,2-a]azepine-3-carboxaldehyde] | 71.9 | 100 | 8.4 | 20.2 | 50.8 | 86.3 |
| CCCSC1=C(C=O)CCc2c1sc1nc3n(c(=O)c21)CCCCCC3 [Compound 5i, 1,2,7,9,10,11,12,14-octahydro-14-oxo-4-(propylthio)-8H-[1]benzothieno[2′,3′:4,5]pyrimido-[1,2-a]-azocine-3-carbaldehyde] | 43.9 | 100 | 11.6 | 17.3 | 22.5 | 80.5 |
| O=c1c2c3c(sc2nc2n1CCCCC2)C(Sc1ccccc1)=C(CO)CC3 [Compound 6a, 1,2,7,8,9,10,11,13-Octahydro-13-oxo-4-(phenylthio)[1]benzothieno[2′,3′:4,5]-pyrimido-[1,2-a]azepine-3-hydroxymethyl] | 51.8 | 100 | 11.6 | 42.5 | 45.9 | 48.9 |
| CCCSC1=C(CO)CCc2c1sc1nc3n(c(=O)c21)CCCCC3 [Compound 6c, 1,2,8,9,10,11-Hexahydro-3-(hydroxymethyl)-4-(propylthio)-[1]benzothieno[2′,3′:4,5]-pyrimido-[1,2-a]azepine-13(7H)-one] | 47.7 | 82.4 | 37.5 | 36.7 | 20.4 | 38.1 |
| O=CC1=C(Cl)c2sc3nc4n(c(=O)c3c2CC1)CCCCCC4C=O (stereo not drawn) [Compound 11, 4-Chloro-1,2,7,9, 10,11,12,14-octahydro-14-oxo-8H-[1]benzothieno[2′,3′:4,5]pyrimido-[1,2-a]-azocine-3,7-dicarbaldehyde] | 4.7 | 51.1 | 16.7 | 28.3 | 7.3 | 31.7 |
| O=Cc1ccc2c(sc3nc4n(c(=O)c32)CCCCC4)c1Sc1ccccc1 [Compound 12, 7,8,9,10,11,13-Hexahydro-13-oxo-4-(phenylthio)-[1]benzothieno[2′,3′:4,5]pyrimido[1,2-a]azepine-3-carbaldehyde] | 15.1 | 87.9 | 7 | 8.9 | 8.6 | 25.5 |
| O=c1c2c3c(sc2nc2n1CCCCCC2)C(O)CCC3 (stereo not drawn) [Compound 13, 1,2,3,4,7,8,9,10,11,12-Decahydro-4-hydroxy-14H-[1]benzothieno[2′,3′:4,5]pyrimido[1,2-a]azocin-14-one] | 5 | 20 | 1.7 | 18.6 | -2.2 | 11.7 |
| CC1CCc2nc3sc4c(c3c(=O)n2CC1)CCCC4 (stereo not drawn) [Compound 14, 9-Methyl-2,3,4,7,8,9,10,11-octahydro-[1]benzothieno[2′,3′:4,5]pyrimido[1,2-a]azepin-13(1H)-one] | 12.8 | 19.6 | 5.9 | 14.9 | 27.6 | 34.2 |
| CCOC(=O)C1CCCn2c1nc1sc3c(c1c2=O)CCCC3 (stereo not drawn) [Compound 15, 1,2,3,4,7,9,10,12-Octahydro-12-oxo-8H-[1]benzothieno[2,3-d]pyrido[1,2-a]pyrimidine-7-carboxylic acid ethyl ester] | 14.8 | 24.5 | 10.7 | 15.7 | -0.3 | 13.5 |
| CCOC(=O)C1CCc2nc3sc4c(c3c(=O)n2CC1)CCCC4 (stereo not drawn) [Compound 16, 1,2,3,4,7,8,9,10,11,13-Decahydro-13-oxo-[1]benzothieno[2′,3′:4,5]pyrimido[1,2-a]azepine-9-carboxylic acid ethyl ester] | 17.2 | 18.6 | 3 | 24.8 | 13.6 | 22.9 |
| CC1CCc2nc3sc4c(c3c(=O)n2CC1)CCCC4=O (stereo not drawn) [Compound 17, 2,3,8,9,10,11-Hexahydro-9-methyl-[1]benzothieno[2′,3′: 4,5]pyrimido[1,2-a]azepine-4,13(1H,7H)-dione] | 18.4 | 39.4 | 15.2 | 20.1 | 21.6 | 32.4 |
| CCOC(=O)C1CCCn2c1nc1sc3c(c1c2=O)CCCC3=O (stereo not drawn) [Compound 18, 4,12-Dioxo-1,2,3,4,7,9,10,12-octahydro-8H-[1]benzothieno[2,3-d]pyrido[1,2-a]pyrimidine-7-carboxylic acid ethyl ester] | 0.5 | 9.5 | 18.7 | 23.8 | -3 | 21.3 |
| CCOC(=O)C1CCc2nc3sc4c(c3c(=O)n2CC1)CCCC4=O (stereo not drawn) [Compound 19, 4,13-Dioxo-1,2,3,4,7,8,9,10,11,13-decahydro-[1]benzothieno[2′,3′: 4,5]pyrimido[1,2-a]azepine-9-carboxylic acid ethyl ester] | 10.6 | 33.1 | 0.6 | 4.4 | 13 | 10.5 |
| CC1CCc2nc3sc4c(c3c(=O)n2CC1)CCC(C=O)=C4Cl (stereo not drawn) [Compound 20, 4-Chloro-9-methyl-1,2,7,8,9,10,11,13-octahydro-13-oxo-[1]benzothieno[2′,3′: 4,5]pyrimido [1,2-a]azepine-3-carbaldehyde] | 10.4 | 45.7 | 11.2 | 6.2 | 32 | 100 |

Source: patent US7754709B2 (Solvay Pharmaceuticals BV, priority 2003, dated 2010)
